# Data published in PubChem BioAssay AID1645866 (Buhrlage Lab, Dana-Farber Cancer Institute and Novartis …, 2021).
# The source made the active and inactive calls.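 The calls were made as follows: active = in confirmatory dose-response testing, peak deubiquitinase inhibition of 30% or more; inactive = the rest.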
# Target: Ubiquitin carboxyl-terminal hydrolase 28 (Homo sapiens) (UniProt Q96RU2)
# Experiment: Concentration-response biochemical assay confirming initial hits as inhibitors of ubiquitin-specific protease 28 (AID 1645866)
# Settings: purified USP28, ubiquitin-rhodamine fluorescence, 30 min
# Chain of Ubiquitin carboxyl-terminal hydrolase 28 (Homo sapiens) (Q96RU2 whole entry, looked up): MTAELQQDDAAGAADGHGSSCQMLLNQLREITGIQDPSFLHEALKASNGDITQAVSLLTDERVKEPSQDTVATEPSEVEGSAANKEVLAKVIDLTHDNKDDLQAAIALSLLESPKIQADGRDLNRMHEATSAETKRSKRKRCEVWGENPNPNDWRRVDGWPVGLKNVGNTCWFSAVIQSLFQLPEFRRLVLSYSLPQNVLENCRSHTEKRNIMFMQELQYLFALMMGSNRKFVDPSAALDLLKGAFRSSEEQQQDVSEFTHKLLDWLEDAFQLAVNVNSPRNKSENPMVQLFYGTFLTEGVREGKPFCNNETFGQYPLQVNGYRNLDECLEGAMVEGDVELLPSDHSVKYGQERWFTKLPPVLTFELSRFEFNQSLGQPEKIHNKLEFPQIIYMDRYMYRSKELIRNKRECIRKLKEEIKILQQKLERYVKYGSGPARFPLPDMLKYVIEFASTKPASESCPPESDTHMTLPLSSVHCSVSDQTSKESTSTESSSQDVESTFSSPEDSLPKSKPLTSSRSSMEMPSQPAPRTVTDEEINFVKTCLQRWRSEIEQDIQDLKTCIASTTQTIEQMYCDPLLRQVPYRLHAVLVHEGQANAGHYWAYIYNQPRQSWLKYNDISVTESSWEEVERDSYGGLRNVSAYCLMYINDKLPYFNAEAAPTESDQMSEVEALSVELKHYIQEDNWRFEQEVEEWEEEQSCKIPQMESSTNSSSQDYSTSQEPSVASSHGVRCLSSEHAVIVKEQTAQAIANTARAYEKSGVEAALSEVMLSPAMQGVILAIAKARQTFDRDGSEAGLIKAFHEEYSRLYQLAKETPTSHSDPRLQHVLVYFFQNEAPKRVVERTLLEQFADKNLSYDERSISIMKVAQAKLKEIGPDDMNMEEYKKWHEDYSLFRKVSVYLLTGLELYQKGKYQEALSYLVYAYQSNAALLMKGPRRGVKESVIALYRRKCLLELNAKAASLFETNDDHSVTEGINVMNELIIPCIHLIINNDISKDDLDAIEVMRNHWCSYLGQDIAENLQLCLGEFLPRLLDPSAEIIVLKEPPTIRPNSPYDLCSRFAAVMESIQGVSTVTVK
row,IC50,SMILES
1,8.61 µM,CCOc1ccc(NC(=O)Cn2c(=O)n(CC(=O)NCc3ccc(C)cc3)c(=O)c3sccc32)cc1
2,> 50 µM (inactive),Cc1c(CC(=O)Nc2nn[nH]n2)c(=O)oc2cc3c(cc12)CCC1(CCCCC1)O3
3,34.9 µM,CC1(C)Cc2c(c(-c3ccco3)nc3sc4c(SCCCc5ccccc5)ncnc4c23)CO1
4,> 50 µM (inactive),Cc1ccc(C)c(-n2c(N)c(C(=O)NCCc3ccccc3)c3nc4ccccc4nc32)c1
5,> 50 µM (inactive),Cc1nn(CC(=O)NCc2ccccc2F)c2ccccc12
6,> 50 µM (inactive),O=c1c(OC2O[C@H](CO)[C@H](O)[C@H](O)[C@H]2O)c(-c2ccc(O)cc2)oc2cc(O)cc(O)c12 (stereo not given in full)
7,> 50 µM (inactive),FC(F)(F)c1ccccc1CCN1CCc2nc3ccc(Cl)cc3cc2C1
8,18.5 µM,CC1(C)OC2=C(C(=O)c3cc(O)cc(O)c3C2=O)c2cc(CO)c(O)cc21
9,2.01 µM,Cc1cc(C)cc(-n2cnc3cc(C(=O)NCCC4=CCCCC4)ccc32)c1
10,43.7 µM,Cc1ccccc1C(=O)Nc1ccc(Cc2ccc(NC(=O)c3ccccc3C)c(O)c2)cc1O
11,2.97 µM,CCC(=O)Nc1nc2cc(NC(=O)Nc3cc(C)cc(C)c3)ccc2s1
12,4.32 µM,CCCCCCCc1cc(O)cc(O)c1
13,19.1 µM,COc1cccc(N2C(=O)N(CC(=O)NCc3ccc(Cl)cc3)c3ccccc3S2(=O)=O)c1
14,1.09 µM,CCC/C=C\C#CC/C=C\CCCCCCCC(=O)O
15,> 50 µM (inactive),COc1ccc(CCNC(=O)COc2ncnc3oc(C)c(C)c23)cc1OC
16,1.91 µM,O=C1CC(O)C(C2=CC(=O)c3c(O)cccc3C2=O)O1 (stereo not given)
17,23.9 µM,CC(C)c1cc2c(c(O)c1O)[C@@]13CCCC(C)(C)[C@@H]1C[C@@H]2OC3=O
18,20.7 µM,COc1cc(=O)c(C(=O)Nc2ccc(C#N)cc2)nn1-c1cccc(F)c1
19,25.3 µM,CCCC(O)CCCCCCCc1cc(O)cc(O)c1C(=O)OC(CCC)CCCCCCCc1cc(O)cc(O)c1 (stereo not given)
20,29.3 µM,O=C(NCc1ccccc1)Nc1cccc2ccccc12
21,18.6 µM,O=C(NCc1ccccc1)c1ccc2c(=O)n(-c3ccccc3)c(=O)[nH]c2c1
22,22.6 µM,O=C(/C=C/c1cnc2ccccc2c1)NCc1ccccc1
23,19.8 µM,Cc1ccc(C(C)C)cc1OCCOCCN1CCNCC1
24,0.37 µM,CCc1nc(SCC(=O)Nc2ccccc2Cl)c2oc3ccccc3c2n1
25,20.3 µM,COc1cc(NC(=O)c2cc(CN3CCOCC3)on2)cc(OC)c1

# Further lines, the compound ahead of its results:
row,SMILES,IC50
1,Cc1ccc(C(=O)Nc2nc3n(n2)C(c2ccccc2)CC(=O)N3)cc1 (stereo not given),19.4 µM
2,COc1ccccc1-c1nc2c3c(C)c(C)n(-c4ccc(Br)cn4)c3ncn2n1,2.07 µM
3,CC(C)C(=O)Nc1ccc(N2CCN(Cc3ccc(F)cc3)C2=O)nc1,19.3 µM
4,Cc1ccc(-n2cc3c(N4CCCC(C(=O)NCC5CCCCC5)C4)ncnc3n2)cc1 (stereo not given),> 50 µM (inactive)
5,COc1ccc(C2CC(c3ccccc3)N(C(=O)C3CC3)c3ncnn32)cc1 (stereo not given),> 50 µM (inactive)
6,O=c1c2cnc(N3CCCCC3)nc2ccn1CCc1ccccc1,5.5 µM
7,C=C(NC(=O)C(=C)NC(=O)c1csc(C2=N[C@@H]3c4csc(n4)[C@H]4NC(=O)c5csc(n5)[C@H]([C@](C)(O)[C@@H](C)O)NC(=O)[C@H]5CSC(=N5)/C(=C/C)NC(=O)C([C@@H](C)O)NC(=O)c5csc(n5)C3(CC2)NC(=O)[C@H](C)NC(=O)C(=C)NC(=O)[C@H](C)NC(=O)C([C@@H](C)CC)N[C@@H]2C=Cc3c(C(C)O)cc(nc3[C@H]2O)C(=O)OC4C)n1)C(N)=O (stereo not given in full),> 50 µM (inactive)
8,COc1ccc(CN(C(=O)c2cc(-c3ccc(C)cc3)on2)C2CCS(=O)(=O)C2)cc1 (stereo not given),38 µM
9,NC(=O)C1(N2CCCCC2)CCN(C(=O)c2[nH]nc3c2CCc2ccccc2-3)CC1,> 50 µM (inactive)
10,CCOc1ccccc1-c1nc(-c2nnn(Cc3ccccc3)c2C)no1,> 50 µM (inactive)
11,COCC(C)Nc1ncc(-c2cnccn2)c(-c2ccc(C)s2)n1 (stereo not given),> 50 µM (inactive)
12,O=C(Nc1nnc2n1CCCS2)c1cc2ccccc2o1,4.43 µM
13,COc1ccc(-c2nc(Cn3nnc(C(=O)Nc4ccc(C)c(C)c4)c3N)c(C)o2)cc1,2.12 µM
14,Cc1c(-c2nsc(NC(=O)c3ccc(Cl)cc3)n2)nnn1-c1ccccc1F,5.34 µM
15,Cc1ccc(NC(=O)Cc2nnc3cc(-c4nc(C)no4)ccn23)cc1,5.02 µM
16,Cc1ccccc1Cn1ccc2ccn(Cc3cccnc3)c2c1=O,10.4 µM
17,O=C(CC(C(=O)Nc1ccc2c(c1)OCO2)C(=O)c1ccccc1)Nc1ccc(Cl)cc1F (stereo not given),9.87 µM
18,COc1ccccc1-c1nc2c3c(C)c(C)n(Cc4cccnc4)c3ncn2n1,20.4 µM
19,Cc1cccc(S(=O)(=O)N2CCc3nc4ccccc4n3CC2)c1,24.3 µM
20,CC(=O)Nc1ccc(-n2cnc(C(=O)NC(C)c3ccccc3)c2)nc1 (stereo not given),20.5 µM

row,SMILES,IC50
1,COc1cccc(-c2nc(C(N)=O)c3[nH]c(=O)n(-c4cccc(Cl)c4)c3n2)c1OC,> 50 µM (inactive)
2,C=C(NC(=O)C(=C)NC(=O)c1csc(C2=N[C@@H]3c4csc(n4)[C@H]4NC(=O)c5csc(n5)[C@H]([C@](C)(O)[C@@H](C)O)NC(=O)C5CSC(=N5)/C(=C/C)NC(=O)C([C@@H](C)O)NC(=O)c5csc(n5)[C@]3(CC2)NC(=O)[C@H](C)NC(=O)C(=C)NC(=O)[C@H](C)NC(=O)C([C@@H](C)CC)NC2C=Cc3c(C(C)O)cc(nc3[C@H]2O)C(=O)OC4C)n1)C(N)=O (stereo not given in full),> 50 µM (inactive)
3,Cc1ccc(Cn2cc(-c3noc(-c4ccc[nH]4)n3)nn2)cc1,16.2 µM
4,O=C(c1nnn(Cc2ccc(Cl)cc2)c1-n1cccc1)N1CCCC1,5.97 µM
5,O=C(Nc1ccc2c(c1)OCCO2)c1cc(CN2CCCC2)on1,9.81 µM
6,Cc1ccc(-c2nc(Cn3nnc(-c4nc(-c5ccccn5)no4)c3C)c(C)o2)cc1,> 50 µM (inactive)
7,COc1ccc(-c2cc(-c3nnc4n3CCCCC4)n(-c3ccccc3)n2)cc1,20.1 µM
8,COc1cccc(N2CCN(c3ccc4nnc(CCC(=O)N5CCc6ccccc6C5)n4n3)CC2)c1,22.8 µM
9,O=C(CSc1nncc2ccccc12)Nc1ccc2c(c1)OCO2,37.5 µM
10,Cc1cc(C)nc(SCCn2c(N3CCC(Cc4ccccc4)CC3)nc3c2c(=O)n(C)c(=O)n3C)n1,> 50 µM (inactive)
11,O=C(Nc1ccccc1)c1nc2c(s1)CCN(C(=O)c1ccccc1)CC2,> 50 µM (inactive)
12,COC1C(O)=C2C(=O)O/C(C)=C/C=C/C=C/C=C/CC(c3ccccc3)NC(=O)/C=C/C=C/C=C\C=C\C2(C)C1O (stereo not given),> 50 µM (inactive)
13,O=S(=O)(Cc1nnc(-c2ccccc2C(F)(F)F)o1)c1ccc(Cl)cc1,> 50 µM (inactive)
14,CC[C@H](C)[C@H](NC(=O)[C@H]([C@@H](C)CC)N(C)C(C)=O)C(=O)N[C@H](C(=O)N[C@@H](CC(C)C)C(=O)C1(C)CO1)[C@@H](C)O (stereo not given in full),> 50 µM (inactive)
15,Cn1c2ccccc2c2ncn(Cc3ccc(F)cc3)c(=O)c21,6.71 µM
16,NS(=O)(=O)c1ccc(NS(=O)(=O)c2ccc(NC(=O)Nc3ccc(Cl)cc3)cc2)cc1,3.85 µM
17,CC(=O)O[C@H]1[C@]2(O)C[C@]34SS[C@](CO)(C(=O)N3[C@@H]2C[C@@]12O[C@@H](C)C(C)(C)C2=O)N(C)C4=O,> 50 µM (inactive)
18,COC(=O)C1C(c2ccc(OC)cc2)C2(C(=O)c3ccccc3C2=O)C2C=Cc3ccccc3N12 (stereo not given),> 50 µM (inactive)
19,COc1ccc(CNC(=O)c2[nH]nc3c2CCc2ccccc2-3)cc1,36.1 µM
20,Cc1ccc(C(=O)Nc2ccc(S(=O)(=O)N3CCCC3)cc2)cc1Br,3.32 µM
